# Measured values published in the OPERA property sets (Mansouri et al. 2018).
row,Compound,logP
1,Cc1n[nH]c(C(=O)N(C)C2CCCCC2)c1[N+](=O)[O-],1.68
2,O=C(NC(CO)C(O)c1ccc([N+](=O)[O-])cc1)C(Br)(Br)Br (stereo not given),2.17
3,Nc1ccc(C[C@H](N)C(=O)O)cc1,-2.2
4,Oc1c(Cl)ccc(Cl)c1Cl,3.77
5,O=c1c(O)c(-c2ccc(O)cc2O)oc2cc(O)cc(O)c12,1.54
6,CC(=C(C#N)C#N)c1ccccc1,2.1
7,CC(C)CC#N,1.07
8,CCSCCSP(=O)(OC)OC,1.02
9,CCCCCOc1cc(N)ccc1C(=O)O,2.38
10,CCc1ccccc1OC(C)=O,2.42
11,COP(=S)(Oc1cc(Cl)c(Br)cc1Cl)c1ccccc1 (stereo not given),6.31
12,CCCCCOc1ccc(O)cc1,3.5
13,FCCCc1ccccc1,2.95
14,CCCCNC(=O)NO,0.32
15,CON(C)C(=O)Nc1ccc(Cl)cc1,2.3
16,c1cnc2c(c1)ccc1cccnc12,1.78
17,C=O,0.35
18,Oc1nc2ccccc2[nH]1,1.12
19,NC(=O)c1ccc(Cl)cc1,1.55
20,COCc1ccccc1NC(=O)OCCN1CCCCC1,2.2
21,CC(C)Oc1ccccc1O,2.09
22,Cc1ccc([N+](=O)[O-])cn1,0.99
23,COc1cc([C@@H]2c3cc4c(cc3[C@H](O)[C@H]3COC(=O)[C@H]23)OCO4)cc(OC)c1OC,2.01
24,Cc1cc2nc[nH]c2cc1C,2.35
25,CC(=O)Nc1cccnc1,0.41
26,N#Cc1ccncc1C#N,0.24
27,Nc1nc2cc(Cl)ccc2[nH]1,1.88

row,Compound,logP
1,COc1ccc(O)c2nccc(C)c12,2.75
2,CNC(=O)Oc1ccc(Cl)c(C)c1,2.57
3,C=C,1.13
4,CCCCOCC1CO1 (stereo not given),0.63
5,Cn1ccccc1=O,-0.23
6,CNC(=O)c1cccnc1,0
7,O=C(O)COc1ccc(Cl)cc1Cl,2.81
8,CC(C)(C)C(=O)C(Oc1ccc(Cl)cc1)n1cncn1 (stereo not given),2.77
9,CCOc1c(OC)cc(CCN)cc1OC,1.11
10,OC(c1ccccc1)(c1cncnc1)c1ccc(Cl)cc1Cl (stereo not given),2.56
11,CC(Br)C(=O)O (stereo not given),0.92
12,CCOc1cccc(O)c1,1.98
13,CCCCBr,2.75
14,CNC(=O)Oc1cccc(C(C)(C)C)c1,2.93
15,CCOC(C)=O,0.73
16,O=C1CCC(=O)N1c1ccccc1I,0.8
17,C1COC1,-0.14
18,O=S(=O)(O)c1ccc2ccccc2c1,0.63
19,C=CCN1CCc2nc(N)sc2CC1,1.48
20,CSc1cccc(N)c1,1.45
21,CN1CCOCC1,-0.33
22,CCCCCC(=O)OCC(=O)C1(O)CCC2C3CCC4=CC(=O)CCC4(C)C3C(O)CC21C (stereo not given),4.48
23,OC(CF)CF,-0.36
24,CSc1cccc(-c2nc(N)nc(N)n2)c1,2.16
25,CC(C)NNC(=O)COc1cccc(Cl)c1,1.91
26,CCCCCOC(=O)c1cc(O)c(O)c(O)c1,2.67
27,O=[N+]([O-])c1ccc(OCCN2CCOCC2)cc1,1.54

row,Compound,logP
1,CCNc1nc(Cl)nc(N(CC)CC)n1,3.34
2,COc1cccc(C(=O)NC2CC3CCC(C2)N3Cc2ccccc2)c1OC (stereo not given),3.24
3,Cc1[nH]ncc1[N+](=O)[O-],1.02
4,CN(C)C(N(C)C)=S(I)c1cccc([N+](=O)[O-])c1 (stereo not given),-0.88
5,N#CC1CC1,0.68
6,O=C(O)c1cc([N+](=O)[O-])ccc1Cl,2.03
7,CCOc1cc(N)ccc1C(=O)O,0.99
8,Ic1ccc(I)cc1,4.11
9,NC(CC12CC3CC(CC(C3)C1)C2)C(=O)O (stereo not given),0.43
10,Fc1ccccc1Cn1cc[nH]c1=S,1.77
11,Cn1c(=O)cnc2ccccc21,0.79
12,Oc1ccccc1I,2.65
13,NC(=O)C1(N2CCCCC2)CCN(CCCC(=O)c2ccc(F)cc2)CC1,2.02
14,CCOC(=O)C(=Cc1ccc(Cl)c(Cl)c1)C(C)=O,3.92
15,CC(C)(N)Cc1ccc(Cl)cc1,2.6
16,CCCOc1cncc(C)n1,2.29
17,O=[N+]([O-])c1ccc(O)c([N+](=O)[O-])c1,1.67
18,Cc1cc2c(cc1C)C(=O)C=CC2=O,2.49
19,Oc1cnc2ccccc2n1,0.8
20,CCn1c(=O)c2[nH]c(-c3ccccc3)nc2n(CC)c1=O,2.93
21,CCOP(=S)(OCC)SCSP(=S)(OCC)OCC,5.07
22,Cc1cc([N+](=O)[O-])cc2c1NC(=O)CN=C2c1ccccc1,2.44
23,CC1=C(N2CC2)C(=O)C(CCO)=C(N2CC2)C1=O,0.49
24,CCCCNC,1.33
25,BrC=CBr,1.76
26,CN(C)C(N(C)C)=S(I)c1cccc(Cl)c1 (stereo not given),-0.17
